Assay results: article PMC8609999, “A Phase I trial of talazoparib in patients with advanced hematologic malignancies” (International Journal of Hematologic Oncology, 2021)
Several values for one entry are separate records, joined by “and”; a condition that tells them apart may be missing. Identical values can stand only once. Like-named read-outs stand apart in the source and are kept apart here. Marks after values point to notes of the source that are not given here.

Key:
[1] = tested on: patients with advanced hematologic malignancies (cohort 1: AML/MDS; cohort 2: CLL/MCL); assay: Dose-limiting toxicity / MTD, Phase I 3 + 3 dose-escalation of once-daily oral talazoparib (NCT01399840); format: in vivo; details: for Maximum tolerated dose (MTD): oral once daily, 21-day cycles
Method: This study was an open-label, two-cohort, Phase I, dose-escalation study of once-daily talazoparib monotherapy in patients with advanced hematologic malignancies (ClinicalTrials.gov Identifier: NCT01399840) conducted at seven sites in the US and the UK between July 2011 and November 2013. Enrollment and dose escalation were conducted independently in each cohort of the study. Talazoparib was administered orally, once a day for repeated 21-day cycles under fasting conditions. Each cohort consisted of two stages: dose escalation (stage 1) and dose expansion (stage 2). Dose escalation followed a standard 3 + 3 dose-escalation design, where the first patient in each group was observed from cycle 1 day 1 through cycle 1 day 8 before two to five additional patients were treated in that dose level. […] Planned talazoparib dose levels included 0.1, 0.2, 0.3, 0.45, 0.9, 1.35, and 2.0 mg/day.
The primary objective of the study was to establish the MTD of daily oral talazoparib in molecularly unselected patients with AML or MDS (cohort 1) and in patients with CLL or MCL (cohort 2). The MTD was defined as the highest dose level at which no more than one of six patients experienced a DLT. A DLT was defined as any of the following treatment-related toxicities occurring during cycle 1: in cohort 1, hematologic adverse events (AEs) included bone marrow hypoplasia (≤10% cellularity) lasting ≥28 days. Non-hematologic toxicities included any Grade ≥3 AE except for the following: (1) a non-hematologic Grade 3 laboratory AE that is asymptomatic and rapidly reversible (returned to baseline or to Grade ≤1 within 3 days) unless identified as clinically relevant by the investigator; (2) Grade 3 nausea, vomiting, and/or diarrhea responsive to medications within 24 h; (3) Grade 3 tumor lysis syndrome; (4) Grade 3 stomatitis that resolves within 7 days; or (5) Grade 3 fatigue unless ≥2 grade increase from baseline lasting >3 days. Missing ≥4 doses of talazoparib during cycle 1 for treatment-related non-hematologic toxicity was also defined as a DLT. In cohort 2, hematologic AEs included Grade 4 thrombocytopenia persisting for >7 days and/or resulting in Grade ≥2 hemorrhage, or Grade 4 neutropenia lasting >7 days and/or associated with fever (hematologic AEs for patients with bone marrow effacement [i.e., platelet count ≤50 × 10^9/L and neutrophil count <1 × 10^9/L] included >50% decrease in platelet count persisting for >7 days or resulting in Grade ≥2 hemorrhage, or >50% decrease in neutrophil count and/or associated with fever or systemic infection). For non-hematologic AEs, the same criteria used for cohort 1 were used to define DLT.
Patients experiencing a DLT during cycle 1 could resume talazoparib treatment at the same or reduced dose after recovery to baseline or Grade ≤1 within 21 days of treatment interruption. Patients not experiencing a DLT during cycle 1 could receive additional treatment until disease progression, treatment failure, or relapse. Patients with persisting non-hematologic Grade 1/2 toxicity were dose reduced ∼25%. Dosing was stopped for patients with a Grade 3/4 non-hematologic toxicity and resumed with a 25%–50% dose reduction if toxicity resolved to Grade 0/1 after >7 days, or returned to baseline. Patients with non-hematologic Grade 3 toxicity that resolved to Grade 0/1 in <7 days could resume with ∼25% reduction.
For determination of the MTD, only the treated evaluable patients were included. No formal sample size calculations based on statistical power were performed. Descriptive statistics were used to characterize all outcomes.

[2] = tested on: patients with advanced hematologic malignancies (cohort 1: AML/MDS; cohort 2: CLL/MCL); format: in vivo, human
Text: AEs were coded in accordance with The Medical Dictionary for Regulatory Activities, version 16.1. Treatment-emergent AEs (TEAEs) were defined as AEs that were new, increased in frequency, or worsened in severity, after the first talazoparib dose. AEs counted as drug-related had been classified by investigators as possibly or probably related to talazoparib.
All analyses in this open-label, dose-finding study were descriptive in nature. Descriptive summaries of continuous variables, including the mean, standard deviation (SD), median, range, and, where appropriate, 95% CI and/or interquartile range, were determined using the Statistical Analysis Software (SAS), version 9.2. Descriptive summaries of categorical variables included the number of patients and percentages. Data were summarized with respect to the dose level at which the patients started treatment. Cohorts were defined as all patients who began treatment at a given dose level.

In the case of `Cn1ncnc1[C@H]1c2n[nH]c(=O)c3cc(F)cc(c23)N[C@@H]1c1ccc(F)cc1` [talazoparib], the “Maximum tolerated dose (MTD)” value ([1]; Cohort 1 (AML/MDS)) is reported as < 2.0 mg/day and 1.35 mg/day, the “DLT AE: Neutropenic sepsis” value ([1]; Cohort 1, 0.10 mg/day (n = 3)) is reported as 0 (0.0) n (%) and the “DLT AE: Neutropenic sepsis” value ([1]; Cohort 1, 0.20 mg/day (n = 3)) is reported as 0 (0.0) n (%). The “DLT AE: Neutropenic sepsis” value ([1]; Cohort 1, 0.30 mg/day (n = 5)) was 0 (0.0) n (%), the “DLT AE: Neutropenic sepsis” value ([1]; Cohort 1, 0.45 mg/day (n = 3)) was 0 (0.0) n (%) and the “DLT AE: Neutropenic sepsis” value ([1]; Cohort 1, 0.90 mg/day (n = 4)) was 0 (0.0) n (%). The “DLT AE: Neutropenic sepsis” value ([1]; Cohort 1, 1.35 mg/day (n = 3)) was 0 (0.0) n (%), the “DLT AE: Neutropenic sepsis” value ([1]; Cohort 1, 2.00 mg/day (n = 4)) was 1 (25.0)^† n (%) and the “DLT AE: Neutropenic sepsis” value ([1]; Cohort 1, All (n = 25)) was 1 (4.0) n (%). The “Maximum tolerated dose (MTD)” value ([1]; Cohort 2 (CLL/MCL)) was < 0.9 mg/day and ~0.9 mg/day, the “DLT AE: Neutropenic sepsis” value ([1]; Cohort 2, 0.10 mg/day (n = 3)) was 0 (0.0) n (%) and the “DLT AE: Neutropenic sepsis” value ([1]; Cohort 2, 0.90 mg/day (n = 5)) was 0 (0.0) n (%). The “DLT AE: Neutropenic sepsis” value ([1]; Cohort 2, All (n = 8)) was 0 (0.0) n (%), the “MTD in patients with hematologic malignancies (approximate range)” value ([1]; monotherapy, once daily, both cohorts) was about 1 mg and the “Any AEs of CTCAE Grade of 5 (death)” value ([2]; Cohort 1, 0.10 mg/day (n = 3)) was 0 (0.0) n (%). For the same compound, the “Any study drug-related AEs of CTCAE Grade 5 (death)” value ([2]; Cohort 1, 0.10 mg/day (n = 3)) was 0 (0.0) n (%), the “Any AEs of CTCAE Grade of 5 (death)” value ([2]; Cohort 1, 0.20 mg/day (n = 3)) was 2 (66.7) n (%) and the “Any study drug-related AEs of CTCAE Grade 5 (death)” value ([2]; Cohort 1, 0.20 mg/day (n = 3)) was 0 (0.0) n (%). For the same compound, the “Any AEs of CTCAE Grade of 5 (death)” value ([2]; Cohort 1, 0.30 mg/day (n = 5)) was 1 (20.0) n (%), the “Any study drug-related AEs of CTCAE Grade 5 (death)” value ([2]; Cohort 1, 0.30 mg/day (n = 5)) was 0 (0.0) n (%) and the “Any AEs of CTCAE Grade of 5 (death)” value ([2]; Cohort 1, 0.45 mg/day (n = 3)) was 2 (66.7) n (%). The “Any study drug-related AEs of CTCAE Grade 5 (death)” value ([2]; Cohort 1, 0.45 mg/day (n = 3)) was 0 (0.0) n (%), the “Any AEs of CTCAE Grade of 5 (death)” value ([2]; Cohort 1, 0.90 mg/day (n = 4)) was 3 (75.0) n (%) and the “Any study drug-related AEs of CTCAE Grade 5 (death)” value ([2]; Cohort 1, 0.90 mg/day (n = 4)) was 0 (0.0) n (%). For the same compound, the “Any AEs” value ([2]; Cohort 1, 1.35 mg/day (n = 3)) was 3 (100) n (%), the “Any AEs leading to dose interruption or modification” value ([2]; Cohort 1, 1.35 mg/day (n = 3)) was 0 (0.0) n (%) and the “Any AEs leading to study drug withdrawn” value ([2]; Cohort 1, 1.35 mg/day (n = 3)) was 0 (0.0) n (%). For the same compound, the “Any AEs of CTCAE Grade 3 or 4” value ([2]; Cohort 1, 1.35 mg/day (n = 3)) was 3 (100) n (%), the “Any AEs of CTCAE Grade of 5 (death)” value ([2]; Cohort 1, 1.35 mg/day (n = 3)) was 1 (33.3) n (%) and the “Any SAEs” value ([2]; Cohort 1, 1.35 mg/day (n = 3)) was 2 (66.7) n (%). For the same compound, the “Any SAEs of CTCAE Grade of 3 or 4” value ([2]; Cohort 1, 1.35 mg/day (n = 3)) was 2 (66.7) n (%), the “Any study drug-related AEs” value ([2]; Cohort 1, 1.35 mg/day (n = 3)) was 3 (100) n (%) and the “Any study drug-related AEs leading to dose interruption or modification” value ([2]; Cohort 1, 1.35 mg/day (n = 3)) was 0 (0.0) n (%). The “Any study drug-related AEs leading to study drug withdrawal” value ([2]; Cohort 1, 1.35 mg/day (n = 3)) was 0 (0.0) n (%), the “Any study drug-related AEs of CTCAE Grade 5 (death)” value ([2]; Cohort 1, 1.35 mg/day (n = 3)) was 0 (0.0) n (%) and the “Any study drug-related AEs of CTCAE Grade of 3 or 4” value ([2]; Cohort 1, 1.35 mg/day (n = 3)) was 2 (66.7) n (%). For the same compound, the “Any study drug-related SAEs” value ([2]; Cohort 1, 1.35 mg/day (n = 3)) was 0 (0.0) n (%), the “Any AEs of CTCAE Grade of 5 (death)” value ([2]; Cohort 1, 2.00 mg/day (n = 4)) was 3 (75.0) n (%) and the “Any study drug-related AEs of CTCAE Grade 5 (death)” value ([2]; Cohort 1, 2.00 mg/day (n = 4)) was 1 (25.0)^§ n (%). The “Any AEs of CTCAE Grade of 5 (death)” value ([2]; Cohort 1, All (n = 25)) was 12 (48.0) n (%), the “Any study drug-related AEs of CTCAE Grade 5 (death)” value ([2]; Cohort 1, All (n = 25)) was 1 (4.0)^§ n (%) and the “Any AEs of CTCAE Grade of 5 (death)” value ([2]; Cohort 2, 0.10 mg/day (n = 3)) was 1 (33.3) n (%).
